{"source": "patent US11584765B2", "about": "(priority 2017, dated 2023)", "tested_on": "C57BL/6 mice", "assay": "animal or person", "format": "in vivo", "details": "Mus musculus, sc, 0.5 h, s.c. administration, 30 min, 55° C. water, read-out: ED50 (mg/kg) at 30 min on C57BL/6 mice in Warm-water Tail-flick Test", "note": "Structures can show the parent of a compound that is named as a salt.", "data": [{"compound": "Cc1ncccc1CN1CCC(CCc2ccccc2)(C2CCCO2)C1", "note": "(stereo not shown) [Compound 263, 2-methyl-3-((3-phenethyl-3-(tetrahydrofuran-2-yl)pyrrolidin-1-yl)methyl)pyridine]", "values": [{"measurement": "ED50", "value": "< 10", "unit": "mg/kg"}]}, {"compound": "Cc1ccc(CN2CCC(CCc3ccccc3)(C3CCCO3)C2)cn1", "note": "(stereo not shown) [Compound 264, 2-methyl-5-((3-phenethyl-3-(tetrahydrofuran-2-yl)pyrrolidin-1-yl)methyl)pyridine]", "values": [{"measurement": "ED50", "value": "< 10", "unit": "mg/kg"}]}, {"compound": "c1ccc(CCC2(C3CCCO3)CCN(Cc3cnn(-c4cccnc4)c3)C2)cc1", "note": "(stereo not shown) [Compound 265, 3-(4-((3-phenethyl-3-(tetrahydrofuran-2-yl)pyrrolidin-1-yl)methyl)-1H-pyrazol-1-yl)pyridine]", "values": [{"measurement": "ED50", "value": "> 10", "unit": "mg/kg"}]}, {"compound": "CCOCC1(CCc2ccc(C)s2)CCN(Cc2cnn(C)c2)CC1", "note": "[Compound 266, 4-(ethoxymethyl)-1-((1-methyl-1H-pyrazol-4-yl)methyl)-4-(2-(5-methylthiophen-2-yl)ethyl)piperidine]", "values": [{"measurement": "ED50", "value": "> 10", "unit": "mg/kg"}]}, {"compound": "CCOCC1(CCc2cc(C)cs2)CCN(Cc2cnn(C)c2)CC1", "note": "[Compound 267, 4-(ethoxymethyl)-1-((1-methyl-1H-pyrazol-4-yl)methyl)-4-(2-(4-methylthiophen-2-yl)ethyl)piperidine]", "values": [{"measurement": "ED50", "value": "< 10", "unit": "mg/kg"}]}, {"compound": "CCOCC1(CCc2sccc2C)CCN(Cc2cnn(C)c2)CC1", "note": "[Compound 268, 4-(ethoxymethyl)-1-((1-methyl-1H-pyrazol-4-yl)methyl)-4-(2-(3-methylthiophen-2-yl)ethyl)piperidine]", "values": [{"measurement": "ED50", "value": "< 10", "unit": "mg/kg"}]}, {"compound": "CCOC[C@@]1(CCc2ccccc2)CCN(Cc2cccnc2)C1", "note": "[Compound 269]", "values": [{"measurement": "ED50", "value": "< 10", "unit": "mg/kg"}]}, {"compound": "CCOCC1(CCc2cccs2)CCN(Cc2cnn(C(C)C)c2)CC1", "note": "[Compound 270, 4-(ethoxymethyl)-1-((1-isopropyl-1H-pyrazol-4-yl)methyl)-4-(2-(thiophen-2-yl)ethyl)piperidine HCl]", "values": [{"measurement": "ED50", "value": "> 10", "unit": "mg/kg"}]}, {"compound": "CCOCC1(CCc2cccs2)CCN(Cc2cnn(Cc3ccccc3)c2)CC1", "note": "[Compound 271, 1-((1-benzyl-1H-pyrazol-4-yl)methyl)-4-(ethoxymethyl)-4-(2-(thiophen-2-yl)ethyl)piperidine]", "values": [{"measurement": "ED50", "value": "> 10", "unit": "mg/kg"}]}, {"compound": "C1=CC(C2(CCc3ccsc3)CCN(Cc3cccnc3)C2)OC1", "note": "(stereo not shown) [Compound 272, 3-((3-(2,5-dihydrofuran-2-yl)-3-(2-(thiophen-yl)ethyl)pyrrolidin-1-yl)methyl)pyridine]", "values": [{"measurement": "ED50", "value": "< 10", "unit": "mg/kg"}]}, {"compound": "Cc1ccc(CN2CCC(CCc3ccccc3)(C3CCCO3)C2)c(C)n1", "note": "(stereo not shown) [Compound 273, 2,6-dimethyl-3-((3-phenethyl-3-(tetrahydrofuran-2-yl)pyrrolidin-1-yl)methyl)pyridine]", "values": [{"measurement": "ED50", "value": "< 10", "unit": "mg/kg"}]}, {"compound": "COc1ccc(CN2CCC(CCc3ccccc3)(C3CCCO3)C2)cn1", "note": "(stereo not shown) [Compound 274, 2-methoxy-5-((3-phenethyl-3-(tetrahydrofuran-2-yl)pyrrolidin-1-yl)methyl)pyridine]", "values": [{"measurement": "ED50", "value": "> 10", "unit": "mg/kg"}]}, {"compound": "CCOC[C@@]1(CCc2cccs2)CCN(Cc2cccnc2)C1", "note": "[Compound 275, (S)-3-((3-(ethoxymethyl)-3-(2-(thiophen-2-yl)ethyl)pyrrolidin-1-yl)methyl)pyridine]", "values": [{"measurement": "ED50", "value": "< 10", "unit": "mg/kg"}]}, {"compound": "CCOCC1(CCc2ccccc2)CCN(Cc2ccc(C)nc2)C1", "note": "(stereo not shown) [Compound 276, 5-((3-(ethoxymethyl)-3-phenethylpyrrolidin-1-yl)methyl)-2-methylpyridine]", "values": [{"measurement": "ED50", "value": "< 10", "unit": "mg/kg"}]}, {"compound": "CCOCC1(CCc2ccsc2)CCN(Cc2ccc(C)nc2)C1", "note": "(stereo not drawn) [Compound 277, 5-((3-(ethoxymethyl)-3-(2-(thiophen-3-yl)ethyl)pyrrolidin-l-yl)methyl)-2-methylpyridine]", "values": [{"measurement": "ED50", "value": "< 10", "unit": "mg/kg"}]}, {"compound": "CCOCC1(CCc2ccsc2C)CCN(Cc2cnn(C)c2)CC1", "note": "[Compound 278, 4-(ethoxymethyl)-1-((1-methyl-1H-pyrazol-4-yl)methyl)-4-(2-(2-methylthiophen-3-yl)ethyl)piperidine]", "values": [{"measurement": "ED50", "value": "< 10", "unit": "mg/kg"}]}, {"compound": "CCOCC1(CCc2csc(C)c2)CCN(Cc2cnn(C)c2)CC1", "note": "[Compound 279, 4-(ethoxymethyl)-1-((1-methyl-1H-pyrazol-4-yl)methyl)-4-(2-(5-methylthiophen-3-yl)ethyl)piperidine]", "values": [{"measurement": "ED50", "value": "> 10", "unit": "mg/kg"}]}, {"compound": "CCOCC1(CCc2cscc2C)CCN(Cc2cnn(C)c2)CC1", "note": "[Compound 280, 4-(ethoxymethyl)-1-((1-methyl-1H-pyrazol-4-yl)methyl)-4-(2-(4-methylthiophen-3-yl)ethyl)piperidine]", "values": [{"measurement": "ED50", "value": "< 10", "unit": "mg/kg"}]}, {"compound": "CCOCC1(CCc2cc(C)sc2C)CCN(Cc2cnn(C)c2)CC1", "note": "[Compound 281, 4-(2-(2,5-dimethylthiophen-3-yl)ethyl)-4-(ethoxymethyl)-1-((1-methyl-1H-pyrazol-4-yl)methyl)piperidine]", "values": [{"measurement": "ED50", "value": "> 10", "unit": "mg/kg"}]}, {"compound": "CCOCC1(CCc2c(C)csc2C)CCN(Cc2cnn(C)c2)CC1", "note": "[Compound 282, 4-(2-(2,4-dimethylthiophen-3-yl)ethyl)-4-(ethoxymethyl)-1-((1-methyl-1H-pyrazol-4-yl)methyl)piperidine]", "values": [{"measurement": "ED50", "value": "> 10", "unit": "mg/kg"}]}, {"compound": "CCOCC1(CCc2sccc2C)CCN(Cc2cccnc2)C1", "note": "(stereo not shown) [Compound 283, 3-((3-(ethoxymethyl)-3-(2-(3-methylthiophen-2-yl)ethyl)pyrrolidin-1-yl)methyl)pyridine]", "values": [{"measurement": "ED50", "value": "< 10", "unit": "mg/kg"}]}, {"compound": "CCOCC1(CCc2cc(C)cs2)CCN(Cc2cccnc2)C1", "note": "(stereo not shown) [Compound 284, 3-((3-(ethoxymethyl)-3-(2-(4-methylthiophen-2-yl)ethyl)pyrrolidin-1-yl)methyl)pyridine]", "values": [{"measurement": "ED50", "value": "< 10", "unit": "mg/kg"}]}, {"compound": "CCOCC1(CCc2ccc(C)s2)CCN(Cc2cccnc2)C1", "note": "(stereo not shown) [Compound 285, 3-((3-(ethoxymethyl)-3-(2-(5-methylthiophen-2-yl)ethyl)pyrrolidin-1-yl)methyl)pyridine]", "values": [{"measurement": "ED50", "value": "> 10", "unit": "mg/kg"}]}, {"compound": "CCOCC1(CCc2ccsc2C)CCN(Cc2cccnc2)C1", "note": "(stereo not shown) [Compound 286, 3-((3-(ethoxymethyl)-3-(2-(2-methylthiophen-yl)ethyl)pyrrolidin-1-yl)methyl)pyridine]", "values": [{"measurement": "ED50", "value": "< 10", "unit": "mg/kg"}]}, {"compound": "CCOCC1(CCc2csc(C)c2)CCN(Cc2cccnc2)C1", "note": "(stereo not shown) [Compound 287, 3-((3-(ethoxymethyl)-3-(2-(5-methylthiophen-yl)ethyl)pyrrolidin-1-yl)methyl)pyridine]", "values": [{"measurement": "ED50", "value": "< 10", "unit": "mg/kg"}]}, {"compound": "CCOCC1(CCc2cscc2C)CCN(Cc2cccnc2)C1", "note": "(stereo not shown) [Compound 288, 3-((3-(ethoxymethyl)-3-(2-(4-methylthiophen-yl)ethyl)pyrrolidin-1-yl)methyl)pyridine]", "values": [{"measurement": "ED50", "value": "< 10", "unit": "mg/kg"}]}, {"compound": "CCOCC1(CCc2ccc(Cl)cc2)CCN(Cc2cccnc2)C1", "note": "(stereo not shown) [Compound 289, 3-((3-(4-chlorophenethyl)-3-(ethoxy-methyl)pyrrolidin-1-yl)methyl)pyridine]", "values": [{"measurement": "ED50", "value": "> 10", "unit": "mg/kg"}]}, {"compound": "CCOCC1(CCc2ccc(F)cc2)CCN(Cc2cccnc2)C1", "note": "(stereo not shown) [Compound 290, 3-((3-(ethoxy-methyl)-3-(4-fluoro-phenethyl)pyrrolidin-1-yl)methyl)pyridine]", "values": [{"measurement": "ED50", "value": "< 10", "unit": "mg/kg"}]}, {"compound": "CCOCC1(CCc2ccc(C)cc2)CCN(Cc2cccnc2)C1", "note": "(stereo not shown) [Compound 291, 3-((3-(ethoxymethyl)-3-(4-methyl-phenethyl)pyrrolidin-1-yl)methyl)pyridine]", "values": [{"measurement": "ED50", "value": "> 10", "unit": "mg/kg"}]}, {"compound": "CCOCC1(CCc2ccc(OC)cc2)CCN(Cc2cccnc2)C1", "note": "(stereo not shown) [Compound 292, 3-((3-(ethoxymethyl)-3-(4-methoxy-phenethyl)pyrrolidin-1-yl)methyl)pyridine]", "values": [{"measurement": "ED50", "value": "> 10", "unit": "mg/kg"}]}, {"compound": "C1=CC(C2(CCc3cccs3)CCN(Cc3cccnc3)CC2)OC1", "note": "(stereo not shown) [Compound 293, 3-((4-(2,5-dihydrofuran-2-yl)-4-(2-(thiophen-2-yl)ethyl)piperidin-1-yl)methyl)pyridine]", "values": [{"measurement": "ED50", "value": "> 10", "unit": "mg/kg"}]}, {"compound": "CCOCC1(CCc2ccccc2)CCN(C(C)c2ccc(C)nc2)C1", "note": "(stereo not shown) [Compound 294, 5-(1-(3-(ethoxymethyl)-3-phenethyl-pyrrolidin-1-yl)ethyl)-2-methylpyridine]", "values": [{"measurement": "ED50", "value": "< 10", "unit": "mg/kg"}]}, {"compound": "CCOCC1(CCc2ccc(F)cc2)CCN(C(C)c2ccc(C)nc2)C1", "note": "(stereo not shown) [Compound 295, 5-(1-(3-(ethoxymethyl)-3-(4-fluoro-phenethyl)pyrrolidin-1-yl)ethyl)-2-methylpyridine]", "values": [{"measurement": "ED50", "value": "< 10", "unit": "mg/kg"}]}, {"compound": "CCOCC1(CCc2ccc(F)cc2)CCN(Cc2ccc(C)nc2)C1", "note": "(stereo not shown) [Compound 296, 5-((3-(ethoxymethyl)-3-(4-fluoro-phenethyl)pyrrolidin-1-yl)methyl)-2-methylpyridine]", "values": [{"measurement": "ED50", "value": "< 10", "unit": "mg/kg"}]}, {"compound": "CCOCC1(CCc2cc(C)cs2)CCN(Cc2ccc(C)nc2)C1", "note": "(stereo not shown) [Compound 297, 5-((3-(ethoxymethyl)-3-(2-(4-methylthiophen-2-yl)ethyl)pyrrolidin-1-yl)methyl)-2-methylpyridine]", "values": [{"measurement": "ED50", "value": "< 10", "unit": "mg/kg"}]}, {"compound": "CCOCC1(CCc2ccccc2)CCN(C(CC)c2ccc(C)nc2)C1", "note": "(stereo not shown) [Compound 298, 5-(1-(3-(ethoxymethyl)-3-phenethylpyrrolidin-1-yl)propyl)-2-methylpyridine]", "values": [{"measurement": "ED50", "value": "< 10", "unit": "mg/kg"}]}, {"compound": "CCOCC1(CCc2cc(C)cs2)CCN(Cc2ccc(C)nc2)CC1", "note": "[Compound 299, 5-((4-(ethoxymethyl)-4-(2-(4-methylthiophen-2-yl)ethyl)piperidin-1-yl)methyl)-2-methylpyridine]", "values": [{"measurement": "ED50", "value": "< 10", "unit": "mg/kg"}]}, {"compound": "CCOCC1(CCc2ccc(F)s2)CCN(Cc2ccc(C)nc2)C1", "note": "(stereo not shown) [Compound 300, 5-((3-(ethoxymethyl)-3-(2-(5-fluorothiophen-2-yl)ethyl)pyrrolidin-1-yl)methyl)-2-methylpyridine]", "values": [{"measurement": "ED50", "value": "< 10", "unit": "mg/kg"}]}, {"compound": "CCOCC1(CCc2cc3ccccc3s2)CCN(Cc2ccc(C)nc2)C1", "note": "(stereo not shown) [Compound 301, 5-((3-(2-(benzo[b]thiophen-2-yl)ethyl)-3-(ethoxy-methyl)pyrrolidin-1-yl)methyl)-2-methylpyridine]", "values": [{"measurement": "ED50", "value": "> 10", "unit": "mg/kg"}]}, {"compound": "CCOCC1(CCc2csc3ccccc23)CCN(Cc2ccc(C)nc2)C1", "note": "(stereo not shown) [Compound 302, 5-((3-(2-(benzo[b]thiophen-3-yl)ethyl)-3-(ethoxy-methyl)pyrrolidin-1-yl)methyl)-2-methylpyridine]", "values": [{"measurement": "ED50", "value": "< 10", "unit": "mg/kg"}]}, {"compound": "CCOC[C@@]1(CCc2ccccc2)CCN(C(C)c2ccc(C)nc2)C1.Cl", "note": "(stereo partly drawn) [Compound 303, 5-(1-((S)-3-(ethoxymethyl)-3-phenethylpyrrolidin-1-yl)ethyl)-2-methylpyridine HCl]", "values": [{"measurement": "ED50", "value": "< 10", "unit": "mg/kg"}]}, {"compound": "CCOCC1(CCc2ccc(C)s2)CCN(Cc2ccc(C)nc2)CC1", "note": "[Compound 304, 5-((4-(ethoxymethyl)-4-(2-(5-methylthiophen-2-yl)ethyl)piperidin-1-yl)methyl)-2-methylpyridine]", "values": [{"measurement": "ED50", "value": "< 10", "unit": "mg/kg"}]}, {"compound": "CCOCC1(CCc2ccccc2)CCN(C(C)c2ccc(C)nc2C)C1", "note": "(stereo not shown) [Compound 305, 3-(1-(3-(ethoxymethyl)-3-phenethylpyrrolidin-1-yl)ethyl)-2,6-dimethylpyridine]", "values": [{"measurement": "ED50", "value": "< 10", "unit": "mg/kg"}]}]}
